We go through 14 compounds from ChEMBL document CHEMBL1134583, “Synthesis and biological activity of D- and L-chiro-inositol 2,3,4,5-tetrakisphosphate: design of a novel and potent inhibitor of Ins(3,4,5,6)P4 1-kinase/Ins(1,3,4)P3 5/6-kinase” (J Med Chem, 2001).

Values joined by “and” are separate entries in the source; they are usually repeats but may differ in a detail not shown here. Equal values may be shown once. Some results are limits rather than exact numbers.

One experiment is described as follows: Inhibition against Inositol (3,4,5,6)P4 1-kinase from bovine aorta. Set-up: species or system Bos taurus.
As a reminder, the IC50 is the concentration that inhibits the measured activity by half. High values mean weaker potency, low ones greater potency. As for `O=P(O)(O)OC1C(OP(=O)(O)O)[C@H](O)[C@H](O)C(OP(=O)(O)O)[C@@H]1O` (stereo not given in full), the IC50 was 0.17 µM and 0.2 µM.

Turning to `O=P(O)(O)OC1C(OP(=O)(O)O)[C@H](O)[C@H](OP(=O)(O)O)C(O)[C@@H]1O` (stereo not given in full), it took 0.7 µM to reach half-maximal inhibition (IC50). Still for that read-out and setting: to `O=P(O)(O)OC1[C@H](O)C(O)C(OP(=O)(O)O)[C@H](O)[C@@H]1OP(=O)(O)O` (stereo not given in full) belongs greater than 30 µM; to `O=P(O)(O)OC1C(O)[C@H](O)[C@H](OP(=O)(O)O)C(OP(=O)(O)O)[C@@H]1O` (stereo not given in full), 17 µM. Still for that read-out and setting: the value for `O=P(O)(O)OC1C(OP(=O)(O)O)[C@H](OP(=O)(O)O)[C@H](O)C(O)[C@@H]1O` (stereo not given in full) was 4.2 µM; that for `O=P(O)(O)OC1C(OP(=O)(O)O)[C@@H](O)[C@H](OP(=O)(O)O)C(OP(=O)(O)O)[C@@H]1O` (stereo not given in full) was 14.5 µM; that for `O=P(O)(O)O[C@@H]1[C@@H](OP(=O)(O)O)[C@@H](OP(=O)(O)O)[C@H](O)[C@@H](O)[C@@H]1OP(=O)(O)O` was greater than 30 µM. As to `O=P(O)(O)O[C@@H]1[C@@H](OP(=O)(O)O)[C@@H](OP(=O)(O)O)[C@@H](O)[C@@H](O)[C@@H]1OP(=O)(O)O`, the IC50 was greater than 30 µM. On the same count and under the same terms, the value for `O=P(O)(O)O[C@H]1[C@H](OP(=O)(O)O)[C@@H](OP(=O)(O)O)[C@@H](O)[C@H](O)[C@H]1OP(=O)(O)O` (stereo in doubt; 3) was 1.5 µM; that for `O=P(O)(O)O[C@H]1[C@H](OP(=O)(O)O)[C@@H](OP(=O)(O)O)[C@@H](O)[C@H](O)[C@H]1OP(=O)(O)O` (stereo in doubt; 12) was 1.6 µM; that for `O=P(O)(O)O[C@H]1[C@H](O)[C@@H](OP(=O)(O)O)[C@H](OP(=O)(O)O)[C@@H](OP(=O)(O)O)[C@H]1O` (stereo in doubt; 13) was 16.7 µM. Regarding `O=P(O)(O)O[C@H]1[C@H](O)[C@@H](OP(=O)(O)O)[C@H](OP(=O)(O)O)[C@@H](OP(=O)(O)O)[C@H]1O` (stereo in doubt; 14), the IC50 was 9 µM. Regarding `O=P(O)(O)O[C@@H]1[C@H](O)[C@H](O)[C@@H](OP(=O)(O)O)[C@H](OP(=O)(O)O)[C@H]1O` [INS(1,4,5)P3], 48 µM corresponded to half-maximal inhibition (IC50). Compared with the last compound, the IC50 is about 5.3-fold higher. Same read-out and setting: the value for `O=P(O)(O)OC1C(OP(=O)(O)O)[C@H](OP(=O)(O)O)[C@H](OP(=O)(O)O)C(OP(=O)(O)O)[C@@H]1O` (stereo not given in full) [IONOSITOL (1,3,4,5,6) P5] was 15 µM.

The next experiment in a line: Inhibition of Inositol (3,4,5,6)P4 1-kinase from bovine aorta. Set-up: species or system Bos taurus.
Take `O=P(O)(O)OC1C(OP(=O)(O)O)[C@H](O)[C@H](O)C(OP(=O)(O)O)[C@@H]1O` (stereo not given in full): the IC50 is 0.28 µM.
